Data: patent US20030207830A1, “Mutant NDP kinases for antiviral nucleotide analog activation and therapeutic uses thereof” (priority 2002, published 2003)
Positions count from the first letter of the chain named. In names and notes the source's numbering stands.

B1: N119Y: Dd-NDPK with Tyr at the position of Asn 119, unstable and poorly active (protein, UniProt P22887 1-155, looked up, variant N119Y)
Nucleoside diphosphate …: MSTNKVNKERTFLAVKPDGVARGLVGEIIARYEKKGFVLVGLKQLVPTKDLAESHYAEHKERPFFGGLVSFITSGPVVAMVFEGKGVVASARLMIGVTNPLASAPGSIRGDFGVDVGRYIIHGSDSVESANREIALWFKPEELLTEVKPNPNLYE
B2: Dd-NDPK: wild type NDP kinase from Dictyostelium discoideum (protein, UniProt P22887 1-155, looked up)
Nucleoside diphosphate …: B1 Nucleoside diphosphate … with Y119N

Legend:
[1] = target: T1, human NDP kinase A (NDPK-A, nm23-H1), wild type (Homo sapiens, UniProt P15531); assay: Pre-steady-state phosphotransfer, fluorescence stopped-flow; format: biochemical; conditions: catalytic efficiency of phosphotransfer, NDPK-A, pre-steady state
T1 construct: made in house
T1 sequence (P15531 whole entry): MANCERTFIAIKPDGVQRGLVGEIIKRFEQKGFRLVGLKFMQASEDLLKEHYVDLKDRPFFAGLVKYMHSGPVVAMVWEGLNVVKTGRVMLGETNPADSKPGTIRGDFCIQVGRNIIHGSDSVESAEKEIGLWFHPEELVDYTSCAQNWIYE
Protocol: (§1) FIG. 3 depicts the catalytic efficiency of NDPK-A and mutants for nucleoside analogs. The rates of phosphorylation of pure recombinant NDP kinases (1 μM) were measured at the pre-steady state in a fluorescence stopped-flow with d4T-TP (10 to 80 μM). The catalytic efficiency (expressed in M^−1s^−1) was determined from the variation of the rate as a function of analog as shown in FIG. 2 (▾, NDPK-A, ♦ L55H, ● N115S, ▪ L55H-N115S).
(§2) The activity assays were performed at the pre-steady state level.
(§3) Wild type human NDPK-A and the mutants were expressed and purified according to Schneider et al., 2000, Mol Pharm. Recombinant wild type and mutant Dd-NDPK were obtained as described (Schneid, 1998a), except for N119Y NDP kinase which was partially purified by Q sepharose FF chromatography. Each protein was characterized by […] electrophoresis. The concentration of 17 kDa subunits of the enzyme was either determined by Bradford assay ([…]) or using an absorbance coefficient of ΔA^280=1.249 for a 1 mg/mL solution of human wild type and N115S NDPK-A, and =0.55 for wild type and mutant N119S, N119T Dd-NDP kinases, respectively.
(§4) As the diphosphate form of analogs were not always available, the triphosphate analogs were used to study phosphate transfer in reaction as in Scheme I. Experiments were performed with an Hi-Tech DX2 microvolume stopped-flow reaction (Schneider, 1998) at Aexc=296 nm (for Ado derivatives) or […] (for other nucleotides), 2 mm excitation slit and a 320 nm cutoff filter at the emission. After mixing NDPK (1 μM) and NTP or an analogTP (10-500 μM), the intrinsic protein fluorescence was recorded for 10-200 sec. In each experiment, 400 pairs of data were recorded, and the data from 3-4 identical experiments were averaged and fitted to a number of non-linear analytical equations using the software provided by Hi-Tech.
(§5) The data were analyzed using the reaction scheme: [drawing 1]
(§6) In both the forward and the reverse reactions, the product concentration remains very low, thus the product binding can be neglected, and the observed single step could be attributed to the phosphotransfer (Schneider, 1998). The rate of this observed single step is: [formula]
(§7) and reaches a limiting value (k+2) at NTP saturation. […] Therefore, catalytic efficiencies of phosphorylation (CEphos=k+2/(k−1/k+1)=k+2/KS) were measured, which are equivalent to second order constants and allow a reliable comparison of a variety of NDP kinase substrates.

[2] = target: T2, human NDP kinase A (NDPK-A) variant L55H (Homo sapiens, UniProt P15531, L55H); assay: as above; format: biochemical; conditions: for k2/Ks: catalytic efficiency of phosphotransfer, L55H, pre-steady state
T2 construct: made in house; host or cells: E. coli
T2 sequence (P15531 whole entry L55H): as the sequence (P15531 whole entry) above, with L55H counted along it
Protocol: as §1, §2
(§8) R, the specificity change, is the ratio of the catalytic efficiencies (for analog versus natural nucleotide) of the mutant compared to the wild type enzyme.
as §3, §4, §5, §6, §7

[3] = target: T3, human NDP kinase A (NDPK-A) variant L55H-N115S, SEQ ID NO: 3 (Homo sapiens, UniProt P15531, L55H/N115S); assay: as above; format: biochemical; conditions: for k2/Ks: catalytic efficiency of phosphotransfer, L55H-N115S, pre-steady state
T3 construct: made in house; host or cells: E. coli
T3 sequence (P15531 whole entry L55H/N115S): as the sequence (P15531 whole entry) above, with L55H, N115S counted along it
Protocol: as §1, §2, §8, §3, §4, §5, §6, §7

[4] = target: T4, human NDP kinase A (NDPK-A) variant N115S, SEQ ID NO: 2 (Homo sapiens, UniProt P15531, N115S); assay: as above; format: biochemical; conditions: for k2/Ks: catalytic efficiency of phosphotransfer, N115S, pre-steady state
T4 construct: made in house; host or cells: E. coli
T4 sequence (P15531 whole entry N115S): as the sequence (P15531 whole entry) above, with N115S counted along it
Protocol: as §1, §2, §8, §3, §4, §5, §6, §7

[5] = target: T5, Dictyostelium NDP Kinase N119S (Dictyostelium discoideum, UniProt P22887, N119S); assay: Pre-steady-state fluorescence stopped-flow phosphotransfer from nucleoside triphosphates, N119S Dd-NDPK; format: biochemical; conditions: pre-steady state, stopped-flow; average of three determinations
T5 construct: made in house
T5 sequence (P22887 whole entry N119S): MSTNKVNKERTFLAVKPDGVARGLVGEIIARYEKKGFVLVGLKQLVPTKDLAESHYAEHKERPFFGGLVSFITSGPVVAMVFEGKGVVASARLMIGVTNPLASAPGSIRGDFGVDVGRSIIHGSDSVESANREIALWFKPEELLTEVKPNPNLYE
Protocol: (§9) All numbers in italics have already been published (Schneider, 1998, 2000) The kinetic constants were measured at the pre-steady-state level using a fluorescence stopped-flow device. The binding constants were determined at equilibrium by recording the increase in fluorescence (Schneider, 2000). Values are the average of three independent determinations.
as §4, with “Hi-Tech. All curves fitted to single exponentials.” for “Hi-Tech.”
as §5, §6
(§10) and reaches a limiting value (k+2) at NTP saturation. Saturation could not be obtained with the concentrations of any NTP used here. Therefore, catalytic efficiencies of phosphorylation (CEphos=k+2/(k−1/k+1)=k+2/KS) were measured, which are equivalent to second order constants and allow a reliable comparison of a variety of NDP kinase substrates.

[6] = target: T6, Dictyostelium discoideum NDP kinase (Dd-NDPK) variant N119S, SEQ ID NO: 1 (Dictyostelium discoideum, UniProt P22887, N119S); assay: Pre-steady-state phosphotransfer, fluorescence stopped-flow; format: biochemical; conditions: catalytic efficiency of phosphotransfer, N119S, pre-steady state
T6 construct: made in house
T6 sequence (P22887 whole entry N119S): as above
Protocol: (§11) (A) Kinetics of reaction of phosphorylated Dictyostelium wild type and N119S NDP kinases by 100 μM Acyclovir diphosphate (Acy-DP). The phosphorylated enzyme was prepared with a stoichiometry #1 as described (Deville-Bonne 1996). The kinases were preincubated with ATP in excess in buffer T (50 mM Tris-HCl, pH 7.5, 5 mM MgCl2 and 75 mM KCl). The increase in fluorescence upon mixing the phospho-enzyme (1 μM, final concentration) with Acy-DP in buffer T at 20° C. was monitored with a stopped-flow. The solid lines represent the best fit of each curve to a monoexponential.
(§12) (B) Concentration dependence of the rate constant on Acy-DP concentation. The pseudo-first order rate constant for the reaction (kobs) was plotted against Acy-DP.
as §9, §3
as §4, with “Hi-Tech. All curves fitted to single exponentials.” for “Hi-Tech.”
as §5, §6, §10

[7] = target: T7, Dictyostelium discoideum NDP kinase (Dd-NDPK), wild type (Dictyostelium discoideum, UniProt P22887); assay: as above; format: biochemical; conditions: catalytic efficiency of phosphotransfer, wt
T7 construct: made in house
T7 sequence (P22887 whole entry): as the sequence (P22887 whole entry N119S) above, with S119N counted along it
Protocol: as §11, §12, §9, §3
as §4, with “Hi-Tech. All curves fitted to single exponentials.” for “Hi-Tech.”
as §5, §6, §10

[8] = target: T8, Dictyostelium discoideum NDP kinase inactive variant EI (H122G-F64W) (Dictyostelium discoideum, UniProt P22887, F64W/H122G); assay: biochemical; format: binding
T8 construct: made in house
T8 sequence (P22887 whole entry F64W/H122G): as the sequence (P22887 whole entry N119S) above, with F64W, S119N, H122G counted along it
Protocol: (§13) The binding constants were determined at equilibrium by recording the increase in fluorescence (Schneider, 2000).
(§14) Analog binding affinity was measured using a variant of Dd-NDPK (EI) as described (Schneider, 2000). […] The mutation N119S was inserted in EI in order to measure the nucleotide affinity by fluorescence titration.
(§15) Altered bases as compared to the wild type sequence are underlined in bold. Sequences were checked by automatic sequencing. The mutant EI-N119S was obtained by mutation of the previously described F64W-H122G mutated NDP kinase (here called EI) (Schneider 2000).

[9] = target: T9, Dictyostelium discoideum NDP kinase inactive variant EI-N119S (H122G-F64W-N119S) (Dictyostelium discoideum, UniProt P22887, F64W/H122G/N119S); assay: biochemical; format: binding
T9 construct: made in house
T9 sequence (P22887 whole entry F64W/N119S/H122G): as the sequence (P22887 whole entry N119S) above, with F64W, H122G counted along it
Protocol: as §13, §14, §15

[10] = Steady-state NDP kinase activity, coupled enzymes (pyruvate kinase, lactate dehydrogenase); format: biochemical; conditions: for specific activity: standard conditions: [ATP]=1 mM, [dTDP]=0.2 mM, 20° C.
Protocol: The activity of NDP kinase was measured at 20° C. with ATP and dTDP as substrates using coupled enzymes (pyruvate kinase and lactate dehydrogenase) (Lascu 1993). One unit is the amount of enzyme that catalyzes the phosphotransfer of 1 μmol/min under standard conditions: [ATP]=1 mM, [dTDP]=0.2 mM. Rate constants (kcat) and Michaelis constants (Km) were determined from initial velocities for two different constant ratios of nucleotide [dTDP]/[ATP]=0.05 0.1 with [ATP] varying from 0.2 to 2 mM. kcat is expressed by enzyme subunit. The ratio of the ^apparentkcat/^apparentKM at a given concentration of the other substrate is equal to the true value of kcat/KM for a ping-pong enzyme.

[11] = ratio of catalytic efficiencies analog vs natural nucleotide, mutant vs wild type

Molecule	k2/Ks [1] [M⁻¹ s⁻¹]	k2/Ks [2] [M⁻¹ s⁻¹]	k2/Ks [3] [M⁻¹ s⁻¹]	k2/Ks [4] [M⁻¹ s⁻¹]	specific activity [10] [U/mg]	further results
Nc1nc2c(ncn2[C@H]2C[C@H](O)[C@@H](COP(=O)(O)OP(=O)(O)OP(=O)(O)O)O2)c(=O)[nH]1 [dGTP]	3.6e+06	6.8e+06	500000	240000	–	–
Nc1ncnc2c1ncn2[C@H]1CC[C@@H](COP(=O)(O)OP(=O)(O)OP(=O)(O)O)O1 [ddATP]	–	–	–	–	–	k2/Ks N119S (catalytic efficiency of phosphotransfer) [5]: 2700 M⁻¹ s⁻¹; k2/Ks [6]: 2700 M⁻¹ s⁻¹; k2/Ks [7]: 1300 M⁻¹ s⁻¹; Kd [8]: 4.6 µM; Kd [9]: 2.6 µM
Cc1cn([C@H]2CC[C@@H](COP(=O)(O)OP(=O)(O)OP(=O)(O)O)O2)c(=O)[nH]c1=O [dideoxy-TTP]	20	200	2800	170	–	Specificity change (R) [2, 11]: (6); Specificity change (R) [3, 11]: (370); Specificity change (R) [4, 11]: (100)
L55H: human NDPK-A with Leu 55 replaced by His	–	–	–	–	1900	steady-state activity relative to NDPK-A ([10]; ATP and dTDP): 1.6 fold
B1	–	–	–	–	–	activity relative to wild type ([10]; Dd-NDPK mutant, partially purified): 0.05 % of wild type activity
B2	–	–	–	–	2000	–
